Reference: patent US20170114021A1, “HALOGEN-SUBSTITUTED COMPOUNDS” (priority 2014, published 2017)

Key:
Rhipicephalus sanguineus = Rhipicephalus sanguineus in vitro contact test; type: in vivo; conditions: application rate 5 μg/cm^2; adult dog ticks; after 48 h
Experimental: Rhipicephalus sanguineus—In Vitro Contact Tests
(§1) For the coating of the test tubes, 9 mg of active compound are first dissolved in 1 ml of acetone p.a. and then diluted to the desired concentration with acetone p.a. 250 μl of the solution are distributed homogeneously on the inner walls and the base of a 25 ml test tube by turning and rocking on an orbital shaker (rocking rotation at 30 rpm for 2 h). With 900 ppm active compound solution and internal surface 44.7 cm^2, given homogeneous distribution, an area-based dose of 5 μg/cm^2 is achieved.
After the solvent has evaporated off, the tubes are populated with 5-10 adult dog ticks (Rhipicephalus sanguineus), sealed with a perforated plastic lid and incubated in a horizontal position in the dark at room temperature and ambient humidity. After 48 h, efficacy is determined. To this end, the ticks are knocked to the floor of the tube and incubated on a hotplate at 45-50° C. for not more than 5 min. Ticks which remain motionless on the floor or move in such an uncoordinated manner that they are unable to deliberately avoid the heat by climbing upwards are considered to be dead or moribund.
An efficacy of 100% means that all the ticks were dead or moribund. 0% efficacy means that none of the ticks had been harmed.

Tetranychus urticae = Tetranychus urticae spray test, OP-resistant (TETRUR); type: in vivo; conditions: application rate 100 g/ha; bean leaf discs; after 6 days
Experimental: Tetranychus urticae—Spray Test, OP-Resistant (TETRUR) Solvent: 78.0 parts by weight of acetone • • 1.5 parts by weight of dimethylformamide Emulsifier: alkylaryl polyglycol ether
(§2) To produce a suitable preparation of active compound, 1 part by weight of active compound is dissolved using the specified parts by weight of solvent and made up with water containing an emulsifier concentration of 1000 ppm until the desired concentration is attained. To produce further test concentrations, the preparation is diluted with emulsifier-containing water.
Discs of bean leaves (Phaseolus vulgaris) infested by all stages of the greenhouse red spider mite (Tetranychus urticae) are sprayed with an active ingredient formulation of the desired concentration.
After 6 days, efficacy in % is determined. 100% means that all the spider mites have been killed; 0% means that no spider mites have been killed.

Boophilus microplus = Boophilus microplus injection test (BOOPMI Inj); type: in vivo; conditions: application rate 4 μg/animal; injection into abdomen
Experimental: Boophilus microplus—Injection Test (BOOPMI Inj) Solvent: dimethyl sulphoxide
To produce a suitable preparation of active compound, 10 mg of active compound are mixed with 0.5 ml of solvent and the concentrate is diluted with solvent to the desired concentration.
1 μl of the active compound solution is injected into the abdomen of 5 engorged adult female cattle ticks (Boophilus microplus). The animals are transferred into dishes and kept in a climate-controlled room.
The activity is assessed after the desired time by laying of fertile eggs. Eggs which are not visibly fertile are stored in a climate-controlled cabinet until the larvae hatch after about 42 days. An efficacy of 100% means that none of the ticks has laid any fertile eggs; 0% means that all the eggs are fertile.

Ctenocephalides felis [1] = test: Ctenocephalides felis oral test (CTECFE); type: in vivo; conditions: application rate 20 ppm in citrated cattle blood; after 2 days
Experimental: Ctenocephalides felis—Oral Test (CTECFE) Solvent: dimethyl sulphoxide
To produce a suitable preparation of active compound, 10 mg of active compound are mixed with 0.5 ml of dimethyl sulphoxide. Dilution with citrated cattle blood gives the desired concentration.
About 20 unfed adult cat fleas (Ctenocephalides felis) are placed into a chamber which is closed at the top and bottom with gauze. A metal cylinder whose bottom end is closed with parafilm is placed onto the chamber. The cylinder contains the blood/active compound preparation, which can be imbibed by the fleas through the parafilm membrane.
After 2 days, the kill in % is determined. 100% means that all of the fleas have been killed; 0% means that none of the fleas have been killed.

[2] = log P by HPLC on reversed-phase column (C18), EEC Directive 79/831 Annex V.A8; type: physicochemical
Experimental: ^a) Unless indicated otherwise, the following method was used to determine the log P values and masses: The determination of the given log P values was carried out in accordance with EEC Directive 79/831 Annex V.A8 by HPLC (High Performance Liquid Chromatography) on a reversed-phase column (C18). Agilent 1100 LC system; 50*4.6 Zorbax Eclipse Plus C18 1.8 micron; mobile phase A: acetonitrile (0.1% formic acid); mobile phase B: water (0.09% formic acid); linear gradient from 10% acetonitrile to 95% acetonitrile in 4.25 min, then 95% acetonitrile for a further 1.25 min; oven temperature 55° C.; flow rate: 2.0 ml/min. Mass detection is effected by means of an Agilend MSD system.

Spodoptera frugiperda = Spodoptera frugiperda spray test (SPODFR); type: in vivo; conditions: application rate 100 g/ha; maize leaf discs; after 7 days
Experimental: Spodoptera frugiperda—Spray Test (SPODFR)
Solvent: 78.0 parts by weight of acetone • • 1.5 parts by weight of dimethylformamide Emulsifier: alkylaryl polyglycol ether
as §2
Leaf discs of maize (Zea mays) are sprayed with an active compound preparation of the desired concentration and, after drying, populated with caterpillars of the armyworm (Spodoptera frugiperda).
After 7 days, efficacy in % is determined. 100% means that all the caterpillars have been killed; 0% means that no caterpillars have been killed.

Ctenocephalides felis [3] = test: Ctenocephalides felis in vitro contact test; type: in vivo; conditions: application rate 5 μg/cm^2; adult cat fleas; after 48 h
Experimental: Ctenocephalides felis—In Vitro Contact Test
as §1
After the solvent has evaporated off, the tubes are populated with 5-10 adult cat fleas (Ctenocephalides felis), sealed with a perforated plastic lid and incubated in a horizontal position at room temperature and ambient humidity. After 48 h, efficacy is determined. To this end, the test tubes are stood upright and the fleas are knocked to the base of the tube. Fleas which remain motionless at the base or move in an uncoordinated manner are considered to be dead or moribund.
100% efficacy means that all the fleas were dead or moribund. 0% efficacy means that no fleas were harmed.

Amblyomma hebraeum = test: Amblyomma hebaraeum test (AMBYHE), tick nymph immersion; type: in vivo; conditions: application rate 20 ppm; tick nymphs; after 42 days
Experimental: Amblyomma hebaraeum Test (AMBYHE) Solvent: dimethyl sulphoxide
(§3) To produce a suitable preparation of active compound, 10 mg of active compound are mixed with 0.5 ml of dimethyl sulphoxide, and the concentrate is diluted with water to the desired concentration.
Tick nymphs (Amblyomma hebraeum) are placed into perforated plastic beakers and immersed in the desired concentration for one minute. The ticks are transferred on filter paper into a Petri dish and stored in a climate-controlled cabinet.
After 42 days, the kill in % is determined. 100% means that all of the ticks have been killed; 0% means that none of the ticks have been killed.

Lucilia cuprina = Lucilia cuprina test (LUCICU); type: in vivo; conditions: application rate 20 ppm; L1 larvae; after 2 days
Experimental: Lucilia cuprina-Test (LUCICU) Solvent: dimethyl sulphoxide
as §3
About 20 L1 larvae of the Australian sheep blowfly (Lucilia cuprina) are transferred into a test vessel containing minced horsemeat and the active compound preparation of the desired concentration.
After 2 days, the kill in % is determined. 100% means that all the larvae have been killed; 0% means that no larvae have been killed.

N-{2-fluoro-5-[2′-methyl-5′-(pentafluoroethyl)-4′-(trifluoromethyl)-2′H-1,3′-bipyrazol-4-yl]benzyl}propanamide [Ic-1]
3.83: log P [2]
100%: efficacy (Rhipicephalus sanguineus) | efficacy (Tetranychus urticae) | efficacy (laying of fertile eggs) (Boophilus microplus) | efficacy (kill) (Ctenocephalides felis [1]) | efficacy (Spodoptera frugiperda) | efficacy (Ctenocephalides felis [3]) | efficacy (kill) (Amblyomma hebraeum) | efficacy (kill) (Lucilia cuprina)
